Measured values: ChEMBL document CHEMBL1201861, “Genomics of Drug Sensitity in Cancer screening data, Wellcome Trust Sanger Institute”

How the values were obtained:
[1] = test system: CP66-MEL; experiment: cells; assay type: functional, cell-based; details: Homo sapiens;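 further: growth inhibition of CP66-MEL cells determined in a cell viability assay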
Description: SANGER: Inhibition of human CP66-MEL cell growth in a cell viability assay.

[2] = test system: CPC-N; experiment: cells; assay type: functional, cell-based, Homo sapiens; details: Homo sapiens, CPC-N;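 further: growth inhibition of CPC-N cells, with a cell viability assay as the readout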
Description: SANGER: Inhibition of human CPC-N cell growth in a cell viability assay.

[3] = test system: DMS-79; experiment: cells; assay type: functional, cell-based, Homo sapiens; details: Homo sapiens, DMS-79
Description: SANGER: Inhibition of human DMS-79 cell growth in a cell viability assay.

[4] = test system: HuTu80; experiment: cells; assay type: functional, cell-based, Homo sapiens, HUTU-80; details: Homo sapiens, HuTu80;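 further: growth inhibition of HuTu80 human cells, determined with a cell viability readout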
Description: SANGER: Inhibition of human HUTU-80 cell growth in a cell viability assay.

[5] = test system: IM-9; experiment: SANGER: Inhibition of human IM-9 cell growth in a cell viability assay.; assay type: functional, cell-based; details: Homo sapiens, IM-9
[6] = test system: IST-SL2; experiment: cells; assay type: functional, cell-based, Homo sapiens; details: Homo sapiens, IST-SL2;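 further: growth inhibition of human IST-SL2 cells, read out by a cell viability assay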
Description: SANGER: Inhibition of human IST-SL2 cell growth in a cell viability assay.

[7] = test system: L-540; experiment: cells; assay type: functional, cell-based, Homo sapiens; details: Homo sapiens, L-540;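 further: growth inhibition of the human L-540 cell line, read out with a viability assay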
Description: SANGER: Inhibition of human L-540 cell growth in a cell viability assay.

[8] = test system: LOUCY; experiment: cells; assay type: functional, cell-based, Homo sapiens; details: Homo sapiens, LOUCY;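 further: growth inhibition of human LOUCY cells, read out with a cell viability assay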
Description: SANGER: Inhibition of human LOUCY cell growth in a cell viability assay.

[9] = test system: NB14; experiment: cells; assay type: functional, cell-based, Homo sapiens; details: Homo sapiens, NB14;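 further: growth inhibition of NB14 cells measured with a cell viability assay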
Description: SANGER: Inhibition of human NB14 cell growth in a cell viability assay.

[10] = test system: NB7; experiment: cells; assay type: functional, cell-based, Homo sapiens; details: Homo sapiens, NB7;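 further: growth inhibition of NB7 cells, read out with a cell viability assay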
Description: SANGER: Inhibition of human NB7 cell growth in a cell viability assay.

[11] = test system: NCI-H1436; experiment: cells; assay type: functional, cell-based, Homo sapiens; details: Homo sapiens, NCI-H1436;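 further: growth suppression of human NCI-H1436 cells, determined with a cell viability readout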
Description: SANGER: Inhibition of human NCI-H1436 cell growth in a cell viability assay.

[12] = test system: NCI-H187; experiment: cells; assay type: functional, cell-based, Homo sapiens; details: Homo sapiens, NCI-H187;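 further: growth inhibition of NCI-H187 cells, read out as cell viability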
Description: SANGER: Inhibition of human NCI-H187 cell growth in a cell viability assay.

[13] = test system: NCI-H2141; experiment: cells; assay type: functional, cell-based, Homo sapiens; details: Homo sapiens, NCI-H2141;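 further: growth inhibition of human NCI-H2141 cells, read out with a cell viability assay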
Description: SANGER: Inhibition of human NCI-H2141 cell growth in a cell viability assay.

[14] = test system: NCI-H719; experiment: cells; assay type: functional, cell-based, Homo sapiens; details: Homo sapiens, NCI-H719;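 further: growth inhibition of the cultured cell line, read out with a viability assay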
Description: SANGER: Inhibition of human NCI-H719 cell growth in a cell viability assay.

[15] = test system: SNU-16; experiment: cells; assay type: functional, cell-based, Homo sapiens; details: Homo sapiens, SNU-16;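 further: growth inhibition of human SNU-16 cells, determined with a cell viability readout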
Description: SANGER: Inhibition of human NCI-SNU-16 cell growth in a cell viability assay.

[16] = test system: OPM-2; experiment: cells; assay type: functional, cell-based, Homo sapiens; details: Homo sapiens, OPM-2;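 further: growth of OPM-2 cells measured with a viability assay, IC50 for suppression of proliferation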
Description: SANGER: Inhibition of human OPM-2 cell growth in a cell viability assay.

[17] = test system: SUP-T1; experiment: cells; assay type: functional, cell-based, Homo sapiens; details: Homo sapiens, SUP-T1;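 further: growth inhibition of human SUP-T1 cells, read out as cell viability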
Description: SANGER: Inhibition of human SUP-T1 cell growth in a cell viability assay.

[18] = test system: UACC-812; experiment: cells; assay type: functional, cell-based; details: Homo sapiens
Description: SANGER: Inhibition of human UACC-812 cell growth in a cell viability assay.

[19] = test system: CaR-1; experiment: cells; assay type: functional, cell-based; details: Homo sapiens;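 further: growth inhibition of human CaR-1 cancer cells, read out with a cell viability assay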
Description: SANGER: Inhibition of human CaR-1 cell growth in a cell viability assay.

[20] = test system: DU-145; experiment: cells; assay type: functional, cell-based; details: Homo sapiens
Description: SANGER: Inhibition of human DU-145 cell growth in a cell viability assay.

[21] = test system: Daoy; experiment: cells; assay type: functional, cell-based; details: Homo sapiens;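 further: daoy cell growth inhibition, read out as cell viability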
Description: SANGER: Inhibition of human Daoy cell growth in a cell viability assay.

[22] = test system: GP5d; experiment: cells; assay type: functional, cell-based; details: Homo sapiens;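 further: growth inhibition of human GP5d cells, read out with a cell viability assay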
Description: SANGER: Inhibition of human GP5d cell growth in a cell viability assay.

[23] = test system: HCC1569; experiment: cells; assay type: functional, cell-based; details: Homo sapiens;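 further: growth inhibition of human HCC1569 cells, read out with a cell viability assay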
Description: SANGER: Inhibition of human HCC1569 cell growth in a cell viability assay.

[24] = test system: HCC 2998; experiment: cells; assay type: functional, cell-based; details: Homo sapiens;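 further: growth inhibition of human HCC2998 cells, measured with a cell viability read-out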
Description: SANGER: Inhibition of human HCC2998 cell growth in a cell viability assay.

[25] = test system: HCC70; experiment: cells; assay type: functional, cell-based; details: Homo sapiens;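 further: cell viability assay measuring how strongly the compound suppresses proliferation of HCC70 cells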
Description: SANGER: Inhibition of human HCC70 cell growth in a cell viability assay.

[26] = test system: HO-1-N-1; experiment: cells; assay type: functional, cell-based; details: Homo sapiens;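 further: growth inhibition of human HO-1-N-1 cells, read out with a cell viability assay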
Description: SANGER: Inhibition of human HO-1-N-1 cell growth in a cell viability assay.

[27] = test system: HOP-92; experiment: cells; assay type: functional, cell-based; details: Homo sapiens;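 further: cell viability readout, with IC50 reflecting inhibition of HOP-92 cell growth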
Description: SANGER: Inhibition of human HOP-92 cell growth in a cell viability assay.

[28] = test system: HuP-T3; experiment: cells; assay type: functional, cell-based; details: Homo sapiens;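 further: HuP-T3 cell growth inhibition, read out with a cell viability assay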
Description: SANGER: Inhibition of human HuP-T3 cell growth in a cell viability assay.

[29] = test system: J82; experiment: cells; assay type: functional, cell-based; details: Homo sapiens;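 further: growth inhibition of J82 cells, read out with a cell viability assay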
Description: SANGER: Inhibition of human J82 cell growth in a cell viability assay.

[30] = test system: KYSE-520 cell line; experiment: cells; assay type: functional, cell-based; details: Homo sapiens;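 further: growth inhibition of human KYSE-520 cells, read out with a viability assay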
Description: SANGER: Inhibition of human KYSE-520 cell growth in a cell viability assay.

[31] = test system: LK-2; experiment: cells; assay type: functional, cell-based; details: Homo sapiens;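 further: growth inhibition of LK-2 cells, read out with a viability assay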
Description: SANGER: Inhibition of human LK-2 cell growth in a cell viability assay.

[32] = test system: MFE-280; experiment: cells; assay type: functional, cell-based; details: Homo sapiens;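 further: growth inhibition of MFE-280 cells, determined with a cell viability readout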
Description: SANGER: Inhibition of human MFE-280 cell growth in a cell viability assay.

[33] = test system: MKN-28; experiment: cells; assay type: functional, cell-based; details: Homo sapiens;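 further: cell viability assay read-out, IC50 reflects suppression of growth of human MKN-28 cells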
Description: SANGER: Inhibition of human MKN28 cell growth in a cell viability assay.

[34] = test system: NCI-H292; experiment: cells; assay type: functional, cell-based; details: Homo sapiens;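 further: growth inhibition of NCI-H292 cells, read out with a cell viability assay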
Description: SANGER: Inhibition of human NCI-H292 cell growth in a cell viability assay.

[35] = test system: NCI-H441; experiment: cells; assay type: functional, cell-based; details: Homo sapiens;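 further: growth inhibition of NCI-H441 cells, read out with a cell viability assay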
Description: SANGER: Inhibition of human NCI-H441 cell growth in a cell viability assay.

[36] = test system: NCI-H520; experiment: cells; assay type: functional, cell-based; details: Homo sapiens;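 further: growth inhibition of NCI-H520 cells, measured by a cell viability assay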
Description: SANGER: Inhibition of human NCI-H520 cell growth in a cell viability assay.

[37] = test system: NCI-H630; experiment: cells; assay type: functional, cell-based; details: Homo sapiens;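 further: growth inhibition of NCI-H630 cells, read out with a cell viability assay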
Description: SANGER: Inhibition of human NCI-H630 cell growth in a cell viability assay.

[38] = test system: NCI-H650; experiment: cells; assay type: functional, cell-based; details: Homo sapiens;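 further: growth inhibition of NCI-H650 cells, read out by a viability assay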
Description: SANGER: Inhibition of human NCI-H650 cell growth in a cell viability assay.

[39] = test system: OE33; experiment: cells; assay type: functional, cell-based; details: Homo sapiens;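 further: growth inhibition of human OE33 cells, measured by a cell viability assay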
Description: SANGER: Inhibition of human OE33 cell growth in a cell viability assay.

[40] = test system: OVCAR-5; experiment: cells; assay type: functional, cell-based; details: Homo sapiens;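 further: growth inhibition of human OVCAR-5 cells, read out with a cell viability assay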
Description: SANGER: Inhibition of human OVCAR-5 cell growth in a cell viability assay.

[41] = test system: PANC-08-13; experiment: cells; assay type: functional, cell-based; details: Homo sapiens
Description: SANGER: Inhibition of human PANC-08-13 cell growth in a cell viability assay.

[42] = test system: RCM-1; experiment: cells; assay type: functional, cell-based; details: Homo sapiens;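 further: growth inhibition of the RCM-1 line, determined with a cell viability readout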
Description: SANGER: Inhibition of human RCM-1 cell growth in a cell viability assay.

[43] = test system: RPMI-7951; experiment: cells; assay type: functional, cell-based; details: Homo sapiens
Description: SANGER: Inhibition of human RPMI-7951 cell growth in a cell viability assay.

[44] = test system: SAS; experiment: cells; assay type: functional, cell-based; details: Homo sapiens;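 further: growth inhibition of SAS cells, read out with a cell viability assay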
Description: SANGER: Inhibition of human SAS cell growth in a cell viability assay.

[45] = test system: SF-295; experiment: cells; assay type: functional, cell-based; details: Homo sapiens;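 further: growth inhibition of SF-295 cells, read out with a cell viability assay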
Description: SANGER: Inhibition of human SF295 cell growth in a cell viability assay.

[46] = test system: SW-620; experiment: cells; assay type: functional, cell-based; details: Homo sapiens;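 further: growth inhibition of human SW-620 cells, measured by a cell viability assay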
Description: SANGER: Inhibition of human SW620 cell growth in a cell viability assay.

[47] = test system: SW780; experiment: cells; assay type: functional, cell-based; details: Homo sapiens;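 further: growth inhibition of the cells, read out with a cell viability assay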
Description: SANGER: Inhibition of human SW780 cell growth in a cell viability assay.

[48] = test system: SW837; experiment: cells; assay type: functional, cell-based; details: Homo sapiens;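 further: growth inhibition of SW837 cells, determined with a cell viability assay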
Description: SANGER: Inhibition of human SW837 cell growth in a cell viability assay.

[49] = test system: T47D; experiment: cells; assay type: functional, cell-based; details: Homo sapiens;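 further: growth inhibition of human T47D cells, measured with a cell viability assay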
Description: SANGER: Inhibition of human T47D cell growth in a cell viability assay.

[50] = test system: 647-V; experiment: cells; assay type: functional, cell-based; details: Homo sapiens;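 further: growth inhibition of 647-V cells, read out with a cell viability assay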
Description: SANGER: Inhibition of human 647-V cell growth in a cell viability assay.

[51] = test system: A-375; experiment: cells; assay type: functional, cell-based; details: Homo sapiens;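 further: growth inhibition of A375 cells, read out with a cell viability assay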
Description: SANGER: Inhibition of human A375 cell growth in a cell viability assay.

[52] = test system: BHY; experiment: cells; assay type: functional, cell-based; details: Homo sapiens;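 further: cell growth inhibition read out by a viability assay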
Description: SANGER: Inhibition of human BHY cell growth in a cell viability assay.

[53] = test system: C32; experiment: cells; assay type: functional, cell-based; details: Homo sapiens;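 further: cell viability assay, with IC50 reflecting inhibition of C32 cell growth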
Description: SANGER: Inhibition of human C32 cell growth in a cell viability assay.

[54] = test system: CAL-51; experiment: cells; assay type: functional, cell-based; details: Homo sapiens;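 further: human CAL-51 cell line, growth inhibition read out via a cell viability assay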
Description: SANGER: Inhibition of human CAL-51 cell growth in a cell viability assay.

[55] = test system: CAL-54; experiment: cells; assay type: functional, cell-based; details: Homo sapiens
Description: SANGER: Inhibition of human CAL-54 cell growth in a cell viability assay.

[56] = test system: CAL-72; experiment: cells; assay type: functional, cell-based; details: Homo sapiens
Description: SANGER: Inhibition of human CAL-72 cell growth in a cell viability assay.

[57] = test system: TYK-nu; experiment: cells; assay type: functional, cell-based; details: Homo sapiens
Description: SANGER: Inhibition of human TYK-nu cell growth in a cell viability assay.

[58] = test system: VM-CUB-1; experiment: cells; assay type: functional, cell-based; details: Homo sapiens
Description: SANGER: Inhibition of human VM-CUB-1 cell growth in a cell viability assay.

[59] = test system: VMRC-RCZ; experiment: cells; assay type: functional, cell-based; details: Homo sapiens
Description: SANGER: Inhibition of human VMRC-RCZ cell growth in a cell viability assay.

## C[C@@H](Oc1cc(-c2cnn(C3CCNCC3)c2)cnc1N)c1c(Cl)ccc(F)c1Cl [CRIZOTINIB]
[1]
  IC50: > 2000 nM
[2]
  IC50: > 2000 nM
[3]
  IC50: > 2000 nM
[4]
  IC50: > 2000 nM
[5]
  IC50: > 2000 nM
[6]
  IC50: > 2000 nM
[7]
  IC50: > 2000 nM
[8]
  IC50: > 2000 nM
[9]
  IC50: > 2000 nM
[10]
  IC50: > 2000 nM
[11]
  IC50: > 2000 nM
[12]
  IC50: > 2000 nM
[13]
  IC50: > 2000 nM
[14]
  IC50: > 2000 nM
[15]
  IC50: > 2000 nM
[16]
  IC50: > 2000 nM
[17]
  IC50: > 2000 nM
[18]
  IC50: > 2000 nM

## CS(=O)(=O)N1CCN(Cc2cc3nc(-c4cccc5[nH]ncc45)nc(N4CCOCC4)c3s2)CC1 [PICTILISIB]
[19]
  IC50: > 4000 nM
[20]
  IC50: > 4000 nM
[21]
  IC50: > 4000 nM
[22]
  IC50: > 4000 nM
[23]
  IC50: > 4000 nM
[24]
  IC50: > 4000 nM
[25]
  IC50: 2870 nM
[26]
  IC50: 659 nM
[27]
  IC50: 2750 nM
[28]
  IC50: > 4000 nM
[29]
  IC50: > 4000 nM
[30]
  IC50: > 4000 nM
[31]
  IC50: > 4000 nM
[32]
  IC50: 418 nM
[33]
  IC50: > 4000 nM
[9]
  IC50: > 4000 nM
[10]
  IC50: 390 nM
[34]
  IC50: 974 nM
[35]
  IC50: > 4000 nM
[36]
  IC50: 1090 nM
[37]
  IC50: > 4000 nM
[38]
  IC50: > 4000 nM
[39]
  IC50: > 4000 nM
[40]
  IC50: 940 nM
[41]
  IC50: > 4000 nM
[42]
  IC50: > 4000 nM
[43]
  IC50: > 4000 nM
[44]
  IC50: > 4000 nM
[45]
  IC50: 2320 nM
[46]
  IC50: > 4000 nM
[47]
  IC50: > 4000 nM
[48]
  IC50: > 4000 nM
[49]
  IC50: 598 nM
[50]
  IC50: > 4000 nM
[51]
  IC50: > 4000 nM
[52]
  IC50: 3260 nM
[53]
  IC50: 3420 nM
[54]
  IC50: > 4000 nM
[55]
  IC50: 1070 nM
[56]
  IC50: > 4000 nM
[57]
  IC50: 1960 nM
[58]
  IC50: > 4000 nM
[59]
  IC50: > 4000 nM

## CC(C)C[C@H](NC(=O)[C@H](Cc1ccccc1)NC(=O)c1cnccn1)B(O)O [BORTEZOMIB]
[1]
  IC50: 0.473 nM
[2]
  IC50: > 20 nM
[3]
  IC50: > 20 nM
[24]
  IC50: 0.412 nM
[4]
  IC50: 0.533 nM
[5]
  IC50: > 20 nM
[6]
  IC50: 1.31 nM
[7]
  IC50: 1.37 nM
[8]
  IC50: 0.293 nM
[9]
  IC50: 18 nM
[10]
  IC50: 15.9 nM
[11]
  IC50: 17 nM
[12]
  IC50: > 20 nM
[13]
  IC50: 4.05 nM
[14]
  IC50: > 20 nM
[15]
  IC50: 7.65 nM
[16]
  IC50: 1.33 nM
[17]
  IC50: > 20 nM
[18]
  IC50: > 20 nM

## CC1(C)CCC(c2ccc(Cl)cc2)=C(CN2CCN(c3ccc(C(=O)NS(=O)(=O)c4ccc(N[C@H](CCN5CCOCC5)CSc5ccccc5)c(S(=O)(=O)C(F)(F)F)c4)cc3)CC2)C1 [NAVITOCLAX]
[19]
  IC50: > 2000 nM
[20]
  IC50: 899 nM
[21]
  IC50: > 2000 nM
[22]
  IC50: > 2000 nM
[23]
  IC50: 251 nM
[24]
  IC50: 1070 nM
[25]
  IC50: > 2000 nM
[26]
  IC50: > 2000 nM
[27]
  IC50: > 2000 nM
[28]
  IC50: > 2000 nM
[29]
  IC50: > 2000 nM
[30]
  IC50: > 2000 nM
[31]
  IC50: > 2000 nM
[32]
  IC50: > 2000 nM
[33]
  IC50: > 2000 nM
[9]
  IC50: 1140 nM
[10]
  IC50: > 2000 nM
[34]
  IC50: > 2000 nM
[35]
  IC50: > 2000 nM
[36]
  IC50: > 2000 nM
[37]
  IC50: > 2000 nM
[38]
  IC50: > 2000 nM
[39]
  IC50: > 2000 nM
[40]
  IC50: > 2000 nM
[41]
  IC50: > 2000 nM
[42]
  IC50: > 2000 nM
[43]
  IC50: > 2000 nM
[44]
  IC50: > 2000 nM
[45]
  IC50: > 2000 nM
[46]
  IC50: > 2000 nM
[47]
  IC50: > 2000 nM
[48]
  IC50: > 2000 nM
[49]
  IC50: > 2000 nM
[50]
  IC50: > 2000 nM
[51]
  IC50: > 2000 nM
[52]
  IC50: > 2000 nM
[53]
  IC50: 1190 nM
[54]
  IC50: > 2000 nM
[55]
  IC50: > 2000 nM
[56]
  IC50: > 2000 nM
[57]
  IC50: > 2000 nM
[58]
  IC50: > 2000 nM
[59]
  IC50: > 2000 nM
